Results taken from patent publication US10821152B2, “Methods, agents and compositions for treatment of inflammatory conditions” (Betanien Hospital, priority 2014, dated 2020).
Where two headings read alike, the source gives them in different places. Non-standard residues stand in square brackets, D forms with d. Residues, ends and D or L forms follow the SMILES beside them. dPhe(4-Cl) = N[C@H](Cc1ccc(Cl)cc1)C(=O)O; d2Nal = N[C@H](Cc1ccc2ccccc2c1)C(=O)O; dCit = NC(=O)NCCC[C@@H](N)C(=O)O; d3Pal = N[C@H](Cc1cccnc1)C(=O)O

Key:
[1] = tested on: patient with ankylosing spondylitis; experiment: Treatment of ankylosing spondylitis patient (BASDAI, laboratory variables); assay type: in vivo, human; settings: AS patient
From the text: Diagnosed with ankylosing spondylitis in 1984, HLAB27 positive, with repeated iridocyclitis. Used non-steroidal anti-inflammatory drugs previously. They were offered the TNF-alpha inhibitor Golilimumab in 2010. Their disease activity score was 8.9 in October 2010 (see below for explanation of disease activity score) on initiating Golilimumab; by the June 2012 this score had reduced to 6.6, but by May 2013 the effect had worn off and their score was 7.6. May 2013, they initiated Enbrel treatment, but their disease activity increased from 7.6 to 8.3. Due to their poor response to TNF-alpha therapy, they were offered the GnRH antagonist Degarelix in September 2014.
Disease activity in ankylosing spondylitis is measured by the BASDAI (Bath Ankylosing Spondylitis Disease Activity Index1), has been extensively validated in clinical trials, 2, 3 and is one of the most commonly used outcome measures in clinical trials. This is a componsite index that evaluates fatigue, axial and peripheral pain, stiffness and enthesopathy. Their BASDAI was at 8.7 at baseline. In September 2014 they received their first dose of Degarelix 240 mg sc. By 2 weeks, their BASDAI had reduced to 6.8, and by 6 weeks it had reduced to 5.8. This is the lowest BASDAI score they have ever had since we first started using this method of assessment 4 years ago in 2010. Their morning stiffness lasted 4 hours at baseline, by 6 weeks their morning stiffness had reduced to 2 hours. They had their second dose of Degarelix 80 mg s.c in October 2014. Lumbar flexion and maximum arm abduction were increased after 6 weeks of treatment.
Response to therapy in clinical practice is defined as improvement of 2 units or 50% on a 0-10 scale of the BASDAI, and expert opinion that the treatment should be continued. Their reduction by 6 weeks was 2.9 units, and 7.1 units with an 82% BASDAI score improvement by 9 weeks, and we shall continue treatment. A BASDAI 50% improvement is defined as a major clinical response. […] For comparison, approximately 50-60% of patients achieve a BASDAI 50 by 12 weeks on TNF inhibitors (4). Their ESR has decreased from 46 mm to 23 mm, which is their lowest ESR reading in 19 years. […] By 9 weeks of GnRH antagonist therapy, their kidney function has normalized, and fasting glucose reduced from 7.4 to 6.5 mmol/L. By 3 months, the effect on their ankylosing spondylitis remained, creatinine was at 98 umol/L, with a glomerular filtration rate of 66 ml/min/1.73 m2 in December 2014.

[2] = tested on: patient with systemic lupus erythematosus; experiment: Previous therapies for pain in extremities of the lupus patient; assay type: in vivo, human; settings: previous therapies before degarelix
Procedure: Due to their painful condition, they have been followed up by a pain clinic. They were offered a tricyclic antidepressant, amitriptyline 25 mg in March 2014 for their painful condition.

[3] = tested on: patient with systemic sclerosis; settings: Cyclophosphamide trial, literature, cited from earlier work
[4] = tested on: patient with seropositive rheumatoid arthritis; experiment: Example treatment of RA using oral GnRH antagonists (DAS); assay type: in vivo, human
Procedure: • person with seropositive rheumatoid arthritis with disease duration of 10 years. • Fulfills ACR 2010 classification criteria for rheumatoid arthritis. Experimental Treatment • Is offered experimental GnRH antagonist therapy, Elagolix 550 mg daily for 12 weeks.
• person with seropositive rheumatoid arthritis with disease duration of 10 years. • Fulfills ACR 2010 classification criteria for rheumatoid arthritis. Experimental Treatment • Is offered experimental GnRH antagonist therapy, Relugolix 250 mg daily for 12 weeks.
• person with seropositive rheumatoid arthritis with disease duration of 20 years. • Fulfills ACR 2010 classification criteria for rheumatoid arthritis. Experimental Treatment • Treated with a spiroindoline derivative as a GnRH antagonist orally 200 mg daily for 12 weeks.

[5] = tested on: patient with spondyloarthritis; experiment: Example treatment of spondyloarthritis using Relugolix; assay type: in vivo, human
Procedure: • person with spondyloarthritis with disease duration of 5 years. Experimental Treatment • Is offered experimental GnRH antagonist therapy, Relugolix 400 mg daily for 12 weeks. Assessment of Response at 4 Months • Disease activity in ankylosing spondylitis/spondyloarthritis is measured by the BASDAI score. Their BASDAI is 5 at baseline.

[6] = tested on: patient with lithium induced psoriasis; settings: 15 patients with psoriasis taking lithium, pretreatment, literature; cited from earlier work
mice = experiment: Animal study of preventing age related inflammation; assay type: in vivo; settings: 0.5 mg/kg daily with or without gonadal hormone replacement, vs placebo
Procedure: An animal study is conducted with 40 fertile female mice aged approximately 6-20 months in a control group (group 1) receiving placebo, 40 age and sex matched mice receiving a drug that reduces the activity of GnRH (group 2), such as Cetrorelix 0.5 mg/kg daily, and 40 age and sex matched mice receiving the same GnRH inhibitor as group 2, but with the additional replacement of gonadal hormone (oestrogen) to age adjusted pre-chosen levels. All mice are followed prospectively, and evaluated for systemic inflammation markers, atherosclerosis, osteoporosis, LDL, and age at death. The same three interventions and assessments are carried out in three groups of male mice with 40 male mice in each group, aged approximately 6-20 months, replacing the gonadal hormone testosterone to pre-chosen levels in group 3. Mice treated with a drug that reduces the activity of GnRH, such as Cetrorelix 0.5 mg/kg daily with or without the replacement of gonadal hormone (preferably with) reach a higher age at death compared with mice in the placebo groups. These mice also show less atherosclerosis, osteoporosis and systemic inflammation than mice in the placebo groups.

[7] = tested on: patients with rheumatoid arthritis; settings: AGRA study, 5 days, Kass et al. 2014; cited from earlier work
[8] = tested on: patients with active longstanding RA; experiment: Double-blinded randomised study of cetrorelix vs placebo in RA (NCT00667758), serum P1NP; assay type: in vivo, human
Procedure: In this double-blinded, single-site study in Norway (ClinicalTrials.gov NCT00667758), 99 patients with active longstanding RA, were randomised to predefined intention-to-treat populations using computer-generated allocation (1:1) in dynamic blocks stratified for sex. Patients were assigned to subcutaneous cetrorelix (n=48) (5 mg days 1-2, 3 mg days 3-5) or placebo (n=51). P1NP was measured on day 10. We investigated serum P1NP between groups, a predefined secondary endpoint. Detailed efficacy and safety data are presented separately.

[9] = tested on: patient with seropositive rheumatoid arthritis; experiment: Treatment of rheumatoid arthritis using Cetrorelix; assay type: in vivo, human; settings: RA patient
Procedure: • person with seropositive rheumatoid arthritis with disease duration of 10 years. • Fulfilled ACR 2010 classification criteria for rheumatoid arthritis. Experimental Treatment • Had tried all therapies available previously without effect. • Offered experimental GnRH antagonist therapy, Cetrorelix in 0.5 mg sc daily in October 2014, then 0.75 mg sc daily in December 2014.

[10] = tested on: patient with osteoarthritis of both knees; experiment: Intra-articular GnRH inhibiting treatment in osteoarthritis; assay type: in vivo, human; settings: intra-articular 1 mg into both knees, 2 week post injection
From the text: • person with osteoarthritis of both knees diagnosed by x-ray 10 years ago • Has had synovitis secondary to osteoarthritis in both knees for the last month, confirmed by synovitis on ultrasound. Experimental Treatment • In order to treat the secondary inflammation as a result of their knee osteoarthritis, they are offered intra-articular GnRH antagonist treatment, for example Cetrorelix lmg injected into both knees. Subcutaneous Cetrorelix for injection can be used. Assessment of Response • Before and 2 week post injection ultrasound images are taken to show a decrease in synovitis in the knee joint.

patient with colitis = settings: week 2 after an infliximab infusion, literature; cited from earlier work

With Golilimumab: TNF-alpha inhibitor the “disease activity score (BASDAI)” value ([1]; June 2012 on Golilimumab) was 6.6, the “disease activity score (BASDAI)” value ([1]; May 2013 on Golilimumab, effect worn off) was 7.6 and the “disease activity score (BASDAI)” value ([1]; October 2010, on initiating Golilimumab) was 8.9.
With `CN(C)CCC=C1c2ccccc2CCc2ccccc21` [amitriptyline] the “effect on pain in extremities” value [2] was “no effect”.
In the case of `NCC1(CC(=O)O)CCCCC1` [gabapentin], the “effect on pain in extremities” value [2] is reported as “no effect”.
For `O=P1(N(CCCl)CCCl)NCCCO1` (stereo not drawn) [Cyclophosphamide], the “digital ulcers, average” value ([3]; over a period of 12 months) is given as 9 ulcers and the “digital ulcers, average” value ([3]; start) is given as 7 ulcers.
In the case of `COc1c(C)c2c(c(O)c1C/C=C(\C)CCC(=O)OCCN1CCOCC1)C(=O)OC2` [mycophenolate mofetil], the “effect on pain in extremities” value [2] is reported as “not effective”.
With `Cn1cnc([N+](=O)[O-])c1Sc1ncnc2nc[nH]c12` [azathioprine] the “effect on pain in extremities” value [2] was “not effective”.
In the case of `CONC(=O)Nc1ccc(-c2sc3c(c2CN(C)C)c(=O)n(-c2ccc(OC)nn2)c(=O)n3Cc2c(F)cccc2F)cc1` [Relugolix], the Eular response ([4]; Relugolix 250 mg daily for 12 weeks, assessment at 4 months) is reported as “Good Eular Response”, the “Disease activity score (DAS)” value ([4]; Relugolix 250 mg daily for 12 weeks, assessment at 4 months (remission)) is reported as 2.5 and the “Disease activity score (DAS)” value ([4]; before Relugolix) is reported as 3.5. The BASDAI ([5]; Relugolix 400 mg daily, at 12 weeks (remission)) was 1.2 and the BASDAI ([5]; baseline) was 5.
For `CN(Cc1cnc2nc(N)nc(N)c2n1)c1ccc(C(=O)N[C@@H](CCC(=O)O)C(=O)O)cc1` [methotrexate], the “effect on pain in extremities” value [2] was “not effective”.
For `CC(C)C[C@H](CN)CC(=O)O` [pregabalin], the “effect on pain in extremities” value [2] was “no effect”.
For `O[C@H]1[C@H](O)[C@@H](O)[C@H](O)[C@@H](O)[C@H]1O` [inositol], the “median PASI score” value [6] is given as 4.9.
For `CC(=O)N[C@H](Cc1ccc2ccccc2c1)C(=O)N[C@H](Cc1ccc(Cl)cc1)C(=O)N[C@H](Cc1cccnc1)C(=O)N[C@@H](CO)C(=O)N[C@@H](Cc1ccc(O)cc1)C(=O)N[C@H](CCCNC(N)=O)C(=O)N[C@@H](CC(C)C)C(=O)N[C@@H](CCCNC(=N)N)C(=O)N1CCC[C@H]1C(=O)N[C@H](C)C(N)=O` [Cetrorelix] (Ac-[d2Nal][dPhe(4-Cl)][d3Pal]SY[dCit]LRP[dA]-NH2), the age at death (mice) is given as “higher”, the “atherosclerosis, osteoporosis and systemic inflammation” value (mice) is given as “less” and the TNF-α [7] is given as “possible reduction”. For the same molecule, the “primary end-point with regard to clinical response” value [7] was “did not meet the primary end-point”, the “P1NP mean difference vs placebo” value ([8]; by day 10, 95% CI −6.62, −0.29, p=0.033) was -3.45 µg/L and the P1NP change ([8]; cetrorelix group (n=48), 5 mg days 1-2, 3 mg days 3-5, by day 10) was -4.21 µg/L. The “disease activity markers and TNF-α (log pg/mL)” value ([8]; cetrorelix vs placebo) was “significant reductions”, the CRP ([9]; at 12 weeks) was 18 mg/L and the ESR ([9]; at 12 weeks) was 28 mm. For the same molecule, the rheumatoid factor level ([9]; at 12 weeks) was 111 kIU/L, the “Disease activity score (DAS)” value ([9]; at 12 weeks, 0.5 then 0.75 mg sc daily) was 5.5 and the CRP ([9]; before Cetrorelix) was 41 mg/L. For the same molecule, the “Disease activity score (DAS)” value ([9]; before Cetrorelix) was 6.1, the ESR ([9]; before Cetrorelix) was 35 mm and the rheumatoid factor level ([9]; before Cetrorelix) was 137 kIU/L. For the same molecule, the “synovitis in the knee joint on ultrasound” value [10] was “decrease”.
In the case of Enbrel, the “disease activity (BASDAI)” value ([1]; May 2013, on initiating Enbrel) is reported as 7.6 and the “disease activity (BASDAI)” value ([1]; after Enbrel treatment) is reported as 8.3.
For “infliximab: anti-tumour necrosis factor-α”, the Fecal calprotectin concentration (patient with colitis) is given as “decreases significantly”.
